Data as given in patent US20110009469A1, “COMPOSITIONS AND METHODS OF TREATING NEOPLASIA” (The Johns Hopkins University, priority 2007, published 2011).

Assays:
Type in all cases: cell-based
[1] = system: miR-143 and miR-145 expression in HPNE-Kras^G12D cells; test: miR-143 and miR-145 expression by northern blot and qRT-PCR in HPNE-Kras^G12D cells; conditions: HPNE-Kras^G12D cells treated with inhibitor
From the text: (§1) Vista was used to generate pairwise alignments between the genomic sequence from human (May 2004 assembly) and the indicated species. The graph is a plot of nucleotide identity for a 100-bp sliding window centered at a given position. […] Expression of RNA transcripts was normalized to β-actin. FIG. 3C is a graph showing the results of a quantitative RT-PCR analysis of miR-143 and miR-145 expression in the cell lines described above. miRNA expression was normalized to 18S RNA. Error bars represent standard deviations.
(§2) U6 served as a loading control. […] Error bars represent standard deviations.
(§3) HPNE-Kras^G12D cells were infected with the anti-RREB-1 lentivirus-shRNA construct and selected in neomycin.
(§4) Kras activity leads to activation of both the Map Kinase (MAPK) cascade (also known as the RAF/MEK/MAPK pathway) and the phosphatidylinositol-3 kinase (PI3K) pathway. In order to determine which of these downstream effector pathways is involved in the Kras-RREB1-miR-143/145 pathway, levels of miR-143 and miR-145 were examined in HPNE-Kras^G12D cells treated with specific inhibitors that target MAPK and PI3K.

[2] = system: miR-143/145 primary transcript in HPNE-Kras^G12D cells; test: quantitative RT-PCR of miR-143/145 primary transcript in HPNE-Kras^G12D cells; conditions: HPNE-Kras^G12D cells treated with inhibitor; qRT-PCR
From the text: as §1, §2, §3, §4

[3] = system: RREB-1 expression in HPNE-Kras^G12D cells; test: qPCR of RREB-1 expression in HPNE-Kras^G12D cells; conditions: HPNE-Kras^G12D cells treated with inhibitor
From the text: as §1, §2, §3, §4

SMILES | miR-143 and miR-145 expression [1] | level of the miR-143/145 primary transcript [2] | RREB-1 expression [3]
O=c1cc(N2CCOCC2)oc2c(-c3ccccc3)cccc12 [LY294002] | no effect | – | –
N#CC(=C(/N)Sc1ccccc1N)/C(C#N)=C(\N)Sc1ccccc1N [U0126, 1,4-diamino-2,3-dicyano-1,4-bis(2-aminophenylthio)butadiene] | significant increase | increased | decreased
